According to PubChem BioAssay AID1963860 (Molecular Pharmacology Branch, DTP, NCI, 2024):
Active and inactive are the calls of the source. How the source made its calls: active means viability on the fitted dose curve at most 10% of control; inactive means the rest.

Test system: CN0375-F725-PDC KRAS spheroid viability
Test: Anticancer human tumor CN0375-F725-PDC patient-derived colon carcinoma cell line growth inhibition [KRAS2]
Conditions: spheroids with HUVEC and MSC; for IC50: curve of first compound; for viability, T/C: stronger effect = lower value
How it was run: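 KRAS-mutant tumor cells were grown as spheroids with HUVEC endothelial cells and human MSCs as stroma. Targeted agents were tested alone and with KRAS pathway inhibitors. Doses started at or near clinical Cmax, or 10 microM, descending half-log.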

[1] = second compound 0.1 µM, first compound 0.000316 µM
[2] = second compound 0.1 µM, first compound 0.001 µM
[3] = second compound 0.1 µM, first compound 0.00316 µM
[4] = second compound 0.1 µM, first compound 0.01 µM
[5] = second compound 0.1 µM, first compound 0.0316 µM
[6] = second compound 0.1 µM, first compound 0.1 µM
[7] = second compound 0.316 µM, first compound 0.000316 µM
[8] = second compound 0.316 µM, first compound 0.001 µM
[9] = second compound 0.316 µM, first compound 0.00316 µM
[10] = second compound 0.316 µM, first compound 0.01 µM
[11] = second compound 0.316 µM, first compound 0.0316 µM
[12] = second compound 0.316 µM, first compound 0.1 µM
[13] = second compound 1 µM, first compound 0.000316 µM
[14] = second compound 1 µM, first compound 0.001 µM
[15] = second compound 1 µM, first compound 0.00316 µM
[16] = second compound 1 µM, first compound 0.01 µM
[17] = second compound 1 µM, first compound 0.0316 µM
[18] = second compound 1 µM, first compound 0.1 µM
[19] = second compound 3.16 µM, first compound 0.000316 µM
[20] = second compound 3.16 µM, first compound 0.001 µM
[21] = second compound 3.16 µM, first compound 0.00316 µM
[22] = second compound 3.16 µM, first compound 0.01 µM
[23] = second compound 3.16 µM, first compound 0.0316 µM
[24] = second compound 3.16 µM, first compound 0.1 µM
[25] = second compound 10 µM, first compound 0.000316 µM
[26] = second compound 10 µM, first compound 0.001 µM
[27] = second compound 10 µM, first compound 0.00316 µM
[28] = second compound 10 µM, first compound 0.01 µM
[29] = second compound 10 µM, first compound 0.0316 µM
[30] = second compound 10 µM, first compound 0.1 µM
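Further: spheroids exposed to agents for 7 days.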

SMILES	IC50 (second compound 0.1 µM)	IC50 (second compound 0.316 µM)	IC50 (second compound 1 µM)	IC50 (second compound 3.16 µM)	IC50 (second compound 10 µM)	viability, T/C [1]	viability, T/C [2]	viability, T/C [3]	viability, T/C [4]	viability, T/C [5]	viability, T/C [6]	viability, T/C [7]	viability, T/C [8]	viability, T/C [9]	viability, T/C [10]	viability, T/C [11]	viability, T/C [12]	viability, T/C [13]	viability, T/C [14]	viability, T/C [15]	also measured
Cn1ncnc1[C@H]1c2n[nH]c(=O)c3cc(F)cc(c23)N[C@@H]1c1ccc(F)cc1 + COc1cc2nc(C)nc(NC(C)c3cc(N)cc(C(F)(F)F)c3)c2cc1OC1CCOC1	> 100 nM	> 100 nM	> 100 nM	> 100 nM	< 0.316 nM	103%	98.8%	96.7%	97.9%	98%	94.9%	97.2%	104%	94.2%	92.5%	96.4%	93.1%	97.7%	105%	86.9%	viability, T/C [16]: 86.7%; viability, T/C [17]: 88.8%; viability, T/C [18]: 86.4%; viability, T/C [19]: 88.6%; viability, T/C [20]: 94%; viability, T/C [21]: 84.1%; viability, T/C [22]: 76.8%; viability, T/C [23]: 79.4%; viability, T/C [24]: 76.8%; viability, T/C [25]: 11.7%; viability, T/C [26]: 14%; viability, T/C [27]: 6.8%; viability, T/C [28]: 13.3%; viability, T/C [29]: 5.32%; viability, T/C [30]: 10.4%
CN(C)C/C=C/C(=O)Nc1cc2c(Nc3ccc(F)c(Cl)c3)ncnc2cc1O[C@H]1CCOC1 + CNCc1ccccc1-c1csc(C(C)Nc2nc(C)nc3cc(OC)c(OC)cc23)c1	> 100 nM	> 100 nM	77.3 nM	1.8 nM	< 0.316 nM	97.1%	95.9%	83.1%	86.4%	78.4%	74.2%	94.8%	88.3%	78.3%	74.6%	76.1%	70.5%	76.3%	67.6%	53.1%	viability, T/C [16]: 54.8%; viability, T/C [17]: 60.4%; viability, T/C [18]: 43.6%; viability, T/C [19]: 99.2%; viability, T/C [20]: 102%; viability, T/C [21]: 0.46%; viability, T/C [22]: 0.32%; outcome [23]: active; viability, T/C [24]: 3.19%; viability, T/C [25]: 0.26%; viability, T/C [26]: 0.23%; viability, T/C [27]: 0.35%; viability, T/C [28]: 0.73%; viability, T/C [29]: 0.29%; viability, T/C [30]: 0.22%
